Reference: patent US11065244B2, “Methods of use of tetrahydroberberine (THB)” (DIGNITY HEALTH, priority 2010, dated 2021)

Columns and labels:
[1] = system: SNc DA neurons; assay: Perforated patch current-clamp recording of membrane potential and firing of dissociated SNc DA neurons, substance applied alone; format: cell-based, rat
Procedure: (§1) The protocol for preparation of single neurons from the rat SNc was approved by the Institutional Animal Care and Use Committee of the Barrow Neurological Institute. Single DA neurons were acutely dissociated from the SNc of 2-3-week-old Wistar rats following the protocol as previously described. Briefly, rats were anesthetized with isoflurane, and brain tissue was rapidly removed and immersed in cold (2-4° C.) dissection solution which contained: 136.7 mM NaCl, 5 mM KCl, 0.1 mM Na2HPO4, 0.2 mM KH2PO4, 9.84 mM HEPES, 16.6 mM D-glucose, 21.9 mM sucrose, pH 7.3, 330 mOsm, oxygenated with 100% O2 [8]. Three 400-μm coronal slices containing the SNc were cut using a vibrotome (Vibroslice 725M, WPI, Sarasota, Fla.). After cutting, slices were continuously bubbled with 95% O2-5% CO2 at room temperature (22±1° C.) for at least one hour in artificial cerebrospinal fluid (ACSF), which contained: 124 mM NaCl, 5 mM KCl, 24 mM NaHCO3, 1.3 mM MgSO4, 1.2 mM KH2PO4, 2.4 mM CaCl2, and 10 mM glucose, pH 7.4. Thereafter, slices were treated with pronase (1 mg per 6 ml) at 31° C. for 30 minutes in ACSF. The SNc was identified in a coronal slice using a stereo microscope with reference to the rat brain atlas, and was micro-punched out from slices using a well-polished needle. One punched piece was then transferred to a 35-mm culture dish filled with well-oxygenated standard extracellular solution, which contained: 150 mM NaCl, 5 mM KCl, 1 mM MgCl2, 2 mM CaCl2, 10 mM glucose 10, and 10 mM HEPES, pH 7.4 (with Tris-base). The punched piece was then dissociated mechanically using a fire-polished micro-Pasteur pipette under an inverted microscope (Olympus IX-70, Lake Success, N.Y.). The separated cells adhered to the bottom of the culture dish within 30 minutes. In the present study, we used only DA neurons that maintained their original morphological features of polygonal, large or medium somata with 2-4 thick primary dendritic processes were used.
Perforated patch whole-cell recording techniques were employed as previously described. Pipettes (3-5 MΩ) used for perforated patch recording were filled with intracellular recording solution containing 140 mM potassium gluconate, 10 mM KCl, 5 mM MgCl2, and 10 mM HEPES, pH 7.2 (with Tris-OH). The amphotericin B was freshly prepared to 200-240 μg/ml from a 40 mg/ml in DMSO stock. The liquid junction potential was 14 mV calculated using Clamplex 9.2 (Axon Instruments, Foster City, Calif.) and corrections were made for junction potentials post-hoc. After tight seal (>2 GΩ) formation, it usually took about 5-20 min to convert to perforated patch mode, and an access resistance of 20-60 MΩ was accepted to start the experiments. Series resistance was not compensated in this study. The data were filtered at 2 kHz, acquired at 10 kHz and digitized on-line (Digidata 1322 series A/D board, Axon Instruments, Foster City, Calif.). […] Drug application was performed using a computer-controlled “U-tube” system as previously described. All experiments were performed at room temperature (22±1° C.). To enable identification of single, dissociated SNc neurons after a patch-clamp recording session, the recording pipette was filled with a fluorescent dye (lucifer yellow CH, Sigma Chemical Co., St. Louis, Mo., 1.0 mg/ml in the recording electrode) in some experiments. After conversion from the perforated patch to the conventional whole-cell recording mode, the dye was ejected into the cytoplasm by a pulse (200 ms, 0.5 Hz) of hyperpolarizing current (1.0 nA) for 3 min. Labeled cells were visualized using epifluorescence microscopy. […]

[2] = system: D2 receptor and dopamine-opened K+ channels; assay: Dopamine-induced membrane potential hyperpolarization in dissociated SNc DA neurons; format: cell-based, rat
Procedure: All experiments were performed at room temperature (22±1° C.).

[3] = biological target: T1, KATP channels in SNc DA neurons (Rattus norvegicus, UniProt P70673+Q09429); assay: Perforated patch current-clamp recording of rotenone-opened KATP channels in dissociated SNc DA neurons; format: cell-based; conditions: for altered membrane potential in the presence of rotenone: FIG. 5C; for altered membrane potential (depolarization) on rotenone-opened KATP channels, analog comparison: 100 μM, 6 neurons, FIG. 4B
T1 construct: functional KATP channels natively expressed on midbrain dopamine neurons; from tissue; host or cells: acutely dissociated dopaminergic neurons of rat substantia nigra pars compacta
Procedure: as §1
Perforated patch whole-cell recording techniques were employed as previously described. Pipettes (3-5 MΩ) used for perforated patch recording were filled with intracellular recording solution containing 140 mM potassium gluconate, 10 mM KCl, 5 mM MgCl2, and 10 mM HEPES, pH 7.2 (with Tris-OH). The amphotericin B was freshly prepared to 200-240 μg/ml from a 40 mg/ml in DMSO stock. The liquid junction potential was 14 mV calculated using Clamplex 9.2 (Axon Instruments, Foster City, Calif.) and corrections were made for junction potentials post-hoc. After tight seal (>2 GΩ) formation, it usually took about 5-20 min to convert to perforated patch mode, and an access resistance of 20-60 MΩ was accepted to start the experiments. Series resistance was not compensated in this study. The data were filtered at 2 kHz, acquired at 10 kHz and digitized on-line (Digidata 1322 series A/D board, Axon Instruments, Foster City, Calif.). […] Drug application was performed using a computer-controlled “U-tube” system as previously described. All experiments were performed at room temperature (22±1° C.). To enable identification of single, dissociated SNc neurons after a patch-clamp recording session, the recording pipette was filled with a fluorescent dye (lucifer yellow CH, Sigma Chemical Co., St. Louis, Mo., 1.0 mg/ml in the recording electrode) in some experiments. After conversion from the perforated patch to the conventional whole-cell recording mode, the dye was ejected into the cytoplasm by a pulse (200 ms, 0.5 Hz) of hyperpolarizing current (1.0 nA) for 3 min. Labeled cells were visualized using epifluorescence microscopy.
Under physiological conditions, the KATP channels are mostly closed. However, in the acutely-dissociated single neurons from rat SNc, there is background opening of KATP channels. […]

[4] = biological target: T2, neuronal KATP channels (Rattus norvegicus, UniProt P70673+Q09429); assay: Rotenone-induced outward current in voltage-clamp mode in the presence of the D2 receptor antagonist sulpiride; format: cell-based; conditions: VH −30 mV, 6 neurons
T2 construct: functional KATP channels natively expressed on midbrain dopamine neurons; from tissue; host or cells: acutely dissociated dopaminergic neurons of rat substantia nigra pars compacta
Procedure: as §1, with “In the present study, we used only DA neurons that maintained their original morphological features of polygonal, large or medium somata with 2-4 thick primary dendritic processes were used.” left out
Perforated patch whole-cell recording techniques were employed as previously described. […] The liquid junction potential was 14 mV calculated using Clamplex 9.2 (Axon Instruments, Foster City, Calif.) and corrections were made for junction potentials post-hoc. […]

[5] = system: rat pancreatic islets; assay: Insulin release from rat pancreatic islets; format: cell-based; conditions: 100 μM; 5.5 mM glucose external; from 22.5±1.2
Procedure: With 5.5 mM glucose in the external solution, basal insulin secretion was measured. […] Bath application of 100 μM THB increased insulin secretion from 22.5±1.2 to 39.4±1.5 pg/islet/min (FIG. 5; P<0.01; 6 cells) and 100 μM Ipt increased insulin secretion from 22.5±1.2 to 34.5±1.8 pg/islet/min (FIG. 11; P<0.05; 7 cells).

[6] = system: cardiac KATP channels (Kir6.1SUR2A); conditions: relevant low concentration; cited from earlier work
[7] = biological target: neuronal type and pancreatic type of KATP channels (Kir6.2SUR1) (Homo sapiens, UniProt Q09428+Q14654); conditions: relatively high concentrations; cited from earlier work
[8] = biological target: T3, pancreatic β-cell KATP channels (Rattus norvegicus, UniProt P70673+Q09429); assay: Inside-out patch single channel recording in rat pancreatic β-cells, ATP free solution; format: cell-based; conditions: bath-applied
T3 construct: Single Channel Currents of KATP Channels in Rat Pancreatic β-Cells; from tissue; host or cells: rat pancreatic β-cells

[9] = biological target: T4, Kir6.2/SUR1 (Homo sapiens, UniProt Q09428+Q14654); assay: Whole-cell voltage-clamp currents of KATP channel subtypes, pancreatic type; format: cell-based; conditions: 100 μM perfused for 30 sec; currents at −100 mV; n=4
T4 construct: expressed in transfected cells
Procedure: (§2) Using whole-cell recordings in voltage-clamp mode, Command pulse protocol was set by the series test pulses with 100 ms duration that were applied between −100 and +50 mV in 10 mV steps from a holding potential of 0 mV (Top traces in FIG. 11, plots A-C). Representative effects of Ipt (100 μM perfused for 30 sec) on whole-cell current traces recorded from a cell expressed Kir6.2/SUR1 (A), Kir6.2/SUR2A (B) or Kir6.1/SUR2B (C). FIG. 11, plot D summarizes data for currents measured at −100 mV from A-C. Values are means±S.E.M. (n=4). *P<0.05, **P<0.01 vs. control.

[10] = biological target: vascular KATP channels (Kir6.1SRU2B) (Homo sapiens, UniProt O60706+Q15842); conditions: relevant low concentration; cited from earlier work
[11] = biological target: T3, pancreatic β-cell KATP channels; assay: Whole-cell KATP currents induced by ramp pulses in rat pancreatic β-cells; format: cell-based; conditions: 100 μM bath application; external glucose 5.5 mM; ramp −90 to −50 mV
Procedure: To determine whether or not THB and Ipt can block pancreatic β-cell KATP channels, whole-cell currents induced by repetitive ramp pulses from −90 to −50 mV (at 0.2 Hz) were recorded in voltage-clamp mode (external glucose=5.5 mM).

[12] = biological target: T5, Kir6.1/SUR2B (Homo sapiens, UniProt O60706+Q15842); assay: Whole-cell voltage-clamp currents of KATP channel subtypes, vesicle type; format: cell-based; conditions: 100 μM perfused for 30 sec; currents at −100 mV; n=4
T5 construct: expressed in transfected cells
Procedure: as §2

[13] = biological target: T6, Kir6.2/SUR2A (Homo sapiens, UniProt O60706+Q14654); assay: Whole-cell voltage-clamp currents of KATP channel subtypes, cardiac type; format: cell-based; conditions: 100 μM perfused for 30 sec; currents at −100 mV; n=4
T6 construct: expressed in transfected cells
Procedure: as §2

[14] = biological target: T7, Kir6.2SUR1 KATP channels (Homo sapiens, UniProt Q09428+Q14654); assay: Patch-clamp cell attached single-channel recording of transfected Kir6.2SUR1 channels in HEK-293 cells; format: cell-based; conditions: 100 μM; control as 1; THB 6 patches, Ipt 8 patches
T7 construct: expressed in transfected cells; host or cells: HEK-293
Procedure: In β-cells, the dominant subtype of KATP is the Kir 6.2SUR1 subtype, as earlier described. Cells transiently transfected with the KATP Kir 6.2SUR1 channel subtype were evaluated for membrane potential and action potential firing using cell-attached recording in the presence or absence of 100 μm THB (FIG. 8A).
To further determine the effects of THB and Ipt on pancreatic β-cell-type KATP channels, the inventor examined the effects of THB or Ipt on the transfected Kir6.2SUR1 KATP channels in HEK-293 cells.

T1 sequence (P70673 whole entry): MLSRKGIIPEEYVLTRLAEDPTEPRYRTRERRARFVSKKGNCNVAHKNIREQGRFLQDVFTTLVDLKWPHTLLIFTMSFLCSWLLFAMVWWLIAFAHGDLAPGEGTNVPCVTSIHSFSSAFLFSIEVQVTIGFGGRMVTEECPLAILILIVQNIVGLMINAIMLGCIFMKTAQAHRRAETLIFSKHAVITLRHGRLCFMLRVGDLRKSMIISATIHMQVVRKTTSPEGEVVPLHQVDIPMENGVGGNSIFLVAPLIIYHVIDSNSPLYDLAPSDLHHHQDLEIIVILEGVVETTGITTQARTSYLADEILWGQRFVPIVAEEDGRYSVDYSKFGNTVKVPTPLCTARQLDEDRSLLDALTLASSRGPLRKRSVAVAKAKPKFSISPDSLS
T1 sequence (Q09429 whole entry): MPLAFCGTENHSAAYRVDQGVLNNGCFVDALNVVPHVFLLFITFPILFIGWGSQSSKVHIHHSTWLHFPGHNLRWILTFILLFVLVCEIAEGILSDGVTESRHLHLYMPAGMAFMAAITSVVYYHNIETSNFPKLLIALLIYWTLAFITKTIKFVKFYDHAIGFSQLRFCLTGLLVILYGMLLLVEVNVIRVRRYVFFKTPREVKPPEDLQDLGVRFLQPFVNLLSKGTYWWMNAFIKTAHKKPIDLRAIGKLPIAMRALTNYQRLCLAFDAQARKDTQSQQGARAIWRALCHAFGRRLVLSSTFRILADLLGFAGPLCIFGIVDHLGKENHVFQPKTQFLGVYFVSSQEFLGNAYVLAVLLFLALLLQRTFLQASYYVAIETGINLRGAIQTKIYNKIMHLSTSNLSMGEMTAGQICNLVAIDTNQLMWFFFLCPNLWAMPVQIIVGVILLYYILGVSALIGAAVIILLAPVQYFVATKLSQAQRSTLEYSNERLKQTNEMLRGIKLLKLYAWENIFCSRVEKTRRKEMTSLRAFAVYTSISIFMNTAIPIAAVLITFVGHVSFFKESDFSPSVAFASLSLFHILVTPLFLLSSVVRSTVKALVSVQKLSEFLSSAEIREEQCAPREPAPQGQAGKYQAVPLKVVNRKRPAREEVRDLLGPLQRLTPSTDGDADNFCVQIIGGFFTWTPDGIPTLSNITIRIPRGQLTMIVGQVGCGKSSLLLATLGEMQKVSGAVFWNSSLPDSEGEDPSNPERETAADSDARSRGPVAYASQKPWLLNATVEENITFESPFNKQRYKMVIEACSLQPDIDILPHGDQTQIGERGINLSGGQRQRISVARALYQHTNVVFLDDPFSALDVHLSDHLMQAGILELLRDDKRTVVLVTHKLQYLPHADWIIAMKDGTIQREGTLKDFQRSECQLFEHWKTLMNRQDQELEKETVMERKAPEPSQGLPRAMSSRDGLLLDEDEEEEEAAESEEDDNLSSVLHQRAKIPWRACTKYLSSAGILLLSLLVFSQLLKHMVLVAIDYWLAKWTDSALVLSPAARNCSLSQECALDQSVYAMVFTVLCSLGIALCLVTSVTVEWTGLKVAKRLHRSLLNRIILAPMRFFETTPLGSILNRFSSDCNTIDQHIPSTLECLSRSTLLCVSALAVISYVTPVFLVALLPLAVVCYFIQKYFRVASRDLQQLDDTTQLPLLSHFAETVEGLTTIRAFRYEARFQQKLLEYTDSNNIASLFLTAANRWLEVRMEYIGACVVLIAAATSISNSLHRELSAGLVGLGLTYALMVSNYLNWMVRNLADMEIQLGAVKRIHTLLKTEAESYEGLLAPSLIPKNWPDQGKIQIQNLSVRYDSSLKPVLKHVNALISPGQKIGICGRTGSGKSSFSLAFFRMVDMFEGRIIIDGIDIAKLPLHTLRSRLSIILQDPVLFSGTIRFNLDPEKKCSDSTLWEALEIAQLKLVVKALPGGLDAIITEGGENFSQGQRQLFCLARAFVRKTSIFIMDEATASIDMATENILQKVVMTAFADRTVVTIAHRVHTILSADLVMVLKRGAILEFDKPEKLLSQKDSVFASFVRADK
T3 sequence (P70673 whole entry): as the sequence (P70673 whole entry) above
T3 sequence (Q09429 whole entry): as the sequence (Q09429 whole entry) above
T2 sequence (P70673 whole entry): as the sequence (P70673 whole entry) above
T2 sequence (Q09429 whole entry): as the sequence (Q09429 whole entry) above
T6 sequence (Q14654 whole entry, the tested form may be a part): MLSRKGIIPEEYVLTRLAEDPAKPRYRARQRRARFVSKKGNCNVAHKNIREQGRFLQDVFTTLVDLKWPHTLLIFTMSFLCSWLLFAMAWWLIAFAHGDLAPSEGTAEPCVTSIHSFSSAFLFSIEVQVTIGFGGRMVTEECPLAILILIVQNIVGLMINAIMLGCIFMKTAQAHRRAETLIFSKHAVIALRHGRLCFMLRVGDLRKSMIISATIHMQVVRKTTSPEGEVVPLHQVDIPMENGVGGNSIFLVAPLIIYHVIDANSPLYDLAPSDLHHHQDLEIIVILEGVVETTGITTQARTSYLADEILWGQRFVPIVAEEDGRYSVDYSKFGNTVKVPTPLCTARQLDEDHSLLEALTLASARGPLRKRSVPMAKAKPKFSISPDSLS
T6 sequence (O60706 whole entry, the tested form may be a part): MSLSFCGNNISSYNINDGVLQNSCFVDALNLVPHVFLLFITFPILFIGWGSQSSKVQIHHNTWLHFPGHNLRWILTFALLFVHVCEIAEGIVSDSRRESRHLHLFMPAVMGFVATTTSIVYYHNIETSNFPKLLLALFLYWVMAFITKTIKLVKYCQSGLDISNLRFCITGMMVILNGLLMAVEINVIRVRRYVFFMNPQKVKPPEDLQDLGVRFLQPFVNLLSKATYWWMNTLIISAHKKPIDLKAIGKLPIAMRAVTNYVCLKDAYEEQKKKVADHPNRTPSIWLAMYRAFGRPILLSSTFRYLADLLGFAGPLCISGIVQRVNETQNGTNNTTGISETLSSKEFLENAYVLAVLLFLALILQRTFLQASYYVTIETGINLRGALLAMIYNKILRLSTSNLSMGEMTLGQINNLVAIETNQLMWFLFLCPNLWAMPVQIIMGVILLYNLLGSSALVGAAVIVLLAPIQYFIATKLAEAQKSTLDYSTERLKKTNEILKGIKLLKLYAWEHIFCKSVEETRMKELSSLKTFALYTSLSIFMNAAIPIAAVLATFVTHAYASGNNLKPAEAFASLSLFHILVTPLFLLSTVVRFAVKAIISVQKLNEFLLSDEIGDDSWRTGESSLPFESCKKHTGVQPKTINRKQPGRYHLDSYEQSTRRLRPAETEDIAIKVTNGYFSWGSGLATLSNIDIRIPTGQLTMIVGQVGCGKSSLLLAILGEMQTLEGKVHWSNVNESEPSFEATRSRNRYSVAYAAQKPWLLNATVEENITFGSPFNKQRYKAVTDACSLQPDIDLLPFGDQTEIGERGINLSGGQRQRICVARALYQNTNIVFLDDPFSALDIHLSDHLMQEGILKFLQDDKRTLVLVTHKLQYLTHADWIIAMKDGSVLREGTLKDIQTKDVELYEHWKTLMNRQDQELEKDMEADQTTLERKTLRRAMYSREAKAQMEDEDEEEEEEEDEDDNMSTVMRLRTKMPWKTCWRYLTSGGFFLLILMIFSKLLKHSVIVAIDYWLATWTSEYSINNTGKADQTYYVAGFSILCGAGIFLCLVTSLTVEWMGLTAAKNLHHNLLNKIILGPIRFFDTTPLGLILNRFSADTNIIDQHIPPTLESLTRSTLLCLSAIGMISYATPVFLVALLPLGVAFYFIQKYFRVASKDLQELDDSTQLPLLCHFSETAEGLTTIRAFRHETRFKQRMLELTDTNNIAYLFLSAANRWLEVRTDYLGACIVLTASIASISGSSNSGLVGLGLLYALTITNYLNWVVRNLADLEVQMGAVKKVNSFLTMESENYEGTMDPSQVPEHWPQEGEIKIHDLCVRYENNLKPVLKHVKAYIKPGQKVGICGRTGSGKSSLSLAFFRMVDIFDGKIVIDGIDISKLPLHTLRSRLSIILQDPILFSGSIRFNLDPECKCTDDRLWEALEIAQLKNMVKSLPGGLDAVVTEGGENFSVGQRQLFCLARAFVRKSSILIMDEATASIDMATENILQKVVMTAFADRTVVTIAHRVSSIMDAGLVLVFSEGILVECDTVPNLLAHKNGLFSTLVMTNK

For `CCCCNC(=O)NS(=O)(=O)c1ccc(C)cc1` [tolbutamide], the “membrane potential after exposure to substance alone” value ([1]; 100 μM, before: THB −46.5±0.9 (n=7), tolbutamide −44.4±1.6 (n=5)) was −44.1±1.8 mV, the “altered membrane potential on co-application with dopamine” value ([2]; difference THB vs tolbutamide p>0.05) was 8.5±2.2 mV and the “membrane potential after substance during persistent perfusion of rotenone” value ([3]; 1 μM rotenone, before: THB −61.7±1.3 (n=11), tolbutamide −61.6±1.2 (n=21), p<0.01) was −52.5±1.1 mV. For the same compound, the “altered membrane potential in the presence of rotenone” value ([3]; 1 μM substance) was 0.2±0.1 mV, the “altered membrane potential in the presence of rotenone” value ([3]; 10 μM substance) was 4.4±0.3 mV and the “altered membrane potential in the presence of rotenone” value ([3]; 100 μM substance) was 9.1±0.5 mV. The “Hill coefficient of concentration-effect relationship curve” value ([3]; membrane depolarization in the presence of rotenone) was 2.1, the IC50 ([3]; membrane depolarization in the presence of rotenone, read-out: IC50 of concentration-effect relationship curve (block of KATP channels)) was 10.4 µM and the “rotenone-induced outward current amplitude after addition of substance” value ([4]; 100 mM substance as printed, sulpiride present, from 125.8±37.1 pA, p<0.01) was 45.8±23.7 pA.

With `COc1cc2c(cc1OC)[C@@H]1Cc3ccc(OC)c(OC)c3CN1CC2` [l-THP, l-tetrahydropalmatine] the “altered membrane potential (depolarization) on rotenone-opened KATP channels, analog comparison” value [3] was 3.4±0.5 mV.

In the case of `NCCc1ccc(O)c(O)c1` [dopamine], the “membrane potential hyperpolarization by dopamine” value ([2]; 10 μM dopamine bath-application, 10 neurons, p<0.01) is reported as 10.5±1.1 mV.

For `CC(C)NC(C)(C)C(C)C` [Ipt, Iptakalim], the “insulin secretion after bath application” value [5] is listed as 34.5±1.8 pg/islet/min, the “concentration at which Ipt weakly opens cardiac KATP channels” value [6] is listed as < 10 µM and the “concentration at which Ipt blocks neuronal type and pancreatic type of KATP channels” value [7] is listed as > 30 µM. The “effect on single channel activities opened by ATP free solution” value [8] was “inhibited these single channel activities”, the “effect on whole-cell current of Kir6.2/SUR1” value [9] was “blocks β-cell-type KATP channels” and the “concentration at which Ipt mainly opens vascular KATP channels” value [10] was < 10 µM. For the same compound, the “effect on β-cell KATP channel-mediated whole-cell currents” value [11] was “reduced these β-cell KATP channel-mediated currents”, the “effect on whole-cell current of Kir6.1/SUR2B” value [12] was “opens cardiovascular types of KATP channels” and the “effect on whole-cell current of Kir6.2/SUR2A” value [13] was “opens cardiovascular types of KATP channels”. The “normalized NPo value” [14] was 0.50±0.02.

In the case of `C=C(C)[C@H]1Cc2c(ccc3c2O[C@@H]2COc4cc(OC)c(OC)cc4[C@@H]2C3=O)O1` [rotenone], the “membrane potential after perfusion of rotenone” value ([1]; 1 μM rotenone for 1-3 min, averaged resting membrane potential −46.1±0.9 mV, 30 neurons, p<0.001) is reported as −61.1±0.9 mV and the “rotenone-induced outward current amplitude” value ([4]; in the presence of sulpiride) is reported as 125.8±37.1 pA.

In the case of `CCN1CCCC1CNC(=O)c1cc(S(N)(=O)=O)ccc1OC` (centres unmarked) [sulpiride], the “effect of D2 receptor antagonist alone on resting membrane potential” value ([1]; exposure alone, neuronal firing rate was increased) is reported as “did not clearly alter resting membrane potential”.

With `COc1cc2c(cc1O)[C@@H]1Cc3ccc(O)c(OC)c3CN1CC2` [l-SPD, l-stepholidine] the “altered membrane potential (depolarization) on rotenone-opened KATP channels, analog comparison” value [3] was 8.4±1.4 mV.

With `CC1=Nc2ccc(Cl)cc2S(=O)(=O)N1` [dizoxide] the “effect of KATP channel opener on membrane potential” value ([1]; 300 μM (FIG. 3B legend)) was “hyperpolarized membrane potential”.
